# From PubChem BioAssay AID330 (DTP/NCI, 2004)
# Several values for one entry are separate records, joined by “and”; a condition that tells them apart may be missing. Equal values may be shown once. Inconclusive results and toxic doses are left out.
# Test system: P388 leukemia ip, CD2F1 mice, survival T/C
# Assay: NCI In Vivo Anticancer Drug Screen. Data for tumor model P388 Leukemia (intraperitoneal) in CD2F1 (CDF1) mice
# Details: endpoint: median survival time, higher = longer survival
# Summary of the method: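 Mice carrying the transplanted tumor received test compound or vehicle. Survival was recorded in each group, and the value is the treated-group measurement divided by that of the vehicle-treated control group.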
# [1] = dose: 50.0 mg/kg/injection, schedule: Q01DX005 (ip), vehicle: saline
# [2] = dose: 100.0 mg/kg/injection, schedule: Q01DX005 (ip), vehicle: saline
# [3] = dose: 12.5 mg/kg/injection, schedule: Q01DX009 (ip), vehicle: saline with Tween-80
# [4] = dose: 25.0 mg/kg/injection, schedule: Q01DX009 (ip), vehicle: saline with Tween-80
# [5] = dose: 50.0 mg/kg/injection, schedule: Q01DX009 (ip), vehicle: saline with Tween-80
# [6] = dose: 6.25 mg/kg/injection, schedule: Q01DX005 (ip), vehicle: Klucel (hydroxypropylcellulose) (HPC)
# [7] = dose: 12.5 mg/kg/injection, schedule: Q01DX005 (ip), vehicle: Klucel (hydroxypropylcellulose) (HPC)
structure (smiles),measurement,setting,value
COc1ccc(Cc2ccc3c(c2)OCO3)cc1C,T/C,[1],104 % of control
same,T/C,[2],104 % of control
same,T/C,"dose: 200.0 mg/kg/injection, schedule: Q01DX005 (ip), vehicle: saline",111 % of control
CNc1c(F)c(C#N)c(F)c(F)c1C#N,T/C,[3],96 % of control
same,T/C,[4],89 % of control
same,T/C,[5],100 % of control
[NH-]C(CCC(N)=O)C(=O)O.[NH-]C(CCCN=C(N)N)C(=O)O.[Zn+2] (configuration not stated),T/C,"dose: 25.0 mg/kg/injection, schedule: Q01DX005 (ip), vehicle: saline",100 % of control and 106 % of control
same,T/C,[1],103 % of control and 106 % of control
same,T/C,[2],110 % of control and 119 % of control
Cc1ccc(N=C(N=C(NC(=O)c2ccccc2)c2ccccc2)c2ccccc2)cc1,T/C,[3],99 % of control
same,T/C,[4],97 % of control
same,T/C,[5],89 % of control and 93 % of control (2×)
same,T/C,"dose: 200.0 mg/kg/injection, schedule: Q01DX009 (ip), vehicle: saline with Tween-80",95 % of control
Clc1cc(=Nc2ccccc2)n2ccccc2n1,T/C,"dose: 60.0 mg/kg/injection, schedule: Q01DX005 (ip), vehicle: Klucel (hydroxypropylcellulose) (HPC)",96 % of control
same,T/C,"dose: 120.0 mg/kg/injection, schedule: Q01DX005 (ip), vehicle: Klucel (hydroxypropylcellulose) (HPC)",99 % of control
same,T/C,"dose: 240.0 mg/kg/injection, schedule: Q01DX005 (ip), vehicle: Klucel (hydroxypropylcellulose) (HPC)",97 % of control
O=C(Cc1cccc2c(=O)cc(-c3ccccc3)oc12)OCCN1CCOCC1,T/C,"dose: 50.0 mg/kg/injection, schedule: Q01DX009 (ip), vehicle: saline",99 % of control
same,T/C,"dose: 100.0 mg/kg/injection, schedule: Q01DX009 (ip), vehicle: saline",100 % of control
O=[N+]([O-])[O][Sn]([O][Sn]([O][N+](=O)[O-])([c]1ccccc1)[c]1ccccc1)([c]1ccccc1)[c]1ccccc1,T/C,"dose: 1.56 mg/kg/injection, schedule: Q01DX005 (ip), vehicle: Klucel (hydroxypropylcellulose) (HPC)",102 % of control
same,T/C,"dose: 3.12 mg/kg/injection, schedule: Q01DX005 (ip), vehicle: Klucel (hydroxypropylcellulose) (HPC)",99 % of control
same,T/C,[6],97 % of control
same,T/C,[7],122 % of control
same,T/C,"dose: 12.5 mg/kg/injection, schedule: Q01DX005 (ip), vehicle: saline",96 % of control
Cc1nc2[nH]cc(-c3ccccc3)c2c(=N)n1-c1ccc(F)cc1,T/C,[6],101 % of control
same,T/C,[7],101 % of control
same,T/C,"dose: 25.0 mg/kg/injection, schedule: Q01DX005 (ip), vehicle: Klucel (hydroxypropylcellulose) (HPC)",102 % of control
CN(C)CCNc1ccc(O)c2c1C(=O)c1ccccc1C2=O,T/C,"dose: 5.0 mg/kg/injection, schedule: Q01DX009 (ip), vehicle: acid diluted with saline",104 % of control
same,T/C,"dose: 10.0 mg/kg/injection, schedule: Q01DX009 (ip), vehicle: acid diluted with saline",100 % of control
same,T/C,"dose: 20.0 mg/kg/injection, schedule: Q01DX009 (ip), vehicle: acid diluted with saline",100 % of control
same,T/C,"dose: 20.0 mg/kg/injection, schedule: Q01DX009 (ip), vehicle: distilled water + Tween-80",110 % of control
same,T/C,"dose: 40.0 mg/kg/injection, schedule: Q01DX009 (ip), vehicle: acid diluted with saline",124 % of control
same,T/C,"dose: 40.0 mg/kg/injection, schedule: Q01DX009 (ip), vehicle: distilled water + Tween-80",117 % of control
same,T/C,"dose: 80.0 mg/kg/injection, schedule: Q01DX009 (ip), vehicle: acid diluted with saline",153 % of control
same,T/C,"dose: 160.0 mg/kg/injection, schedule: Q01DX009 (ip), vehicle: distilled water + Tween-80",153 % of control
CCCCCC(C)[P+](c1ccccc1)(c1ccccc1)c1ccccc1 (configuration not stated),T/C,"dose: 0.39 mg/kg/injection, schedule: Q01DX009 (ip), vehicle: saline with Tween-80",101 % of control
same,T/C,"dose: 0.78 mg/kg/injection, schedule: Q01DX009 (ip), vehicle: saline with Tween-80",114 % of control and 120 % of control
Cc1ccc(S(=O)(=O)C(C)(C)C(O)c2ccccc2)cc1 (configuration not stated),T/C,"dose: 50.0 mg/kg/injection, schedule: Q01DX005 (ip), vehicle: saline with Tween-80",100 % of control
same,T/C,"dose: 100.0 mg/kg/injection, schedule: Q01DX005 (ip), vehicle: saline with Tween-80",99 % of control
same,T/C,"dose: 200.0 mg/kg/injection, schedule: Q01DX005 (ip), vehicle: saline with Tween-80",92 % of control
CCOC(=O)C1=Nc2ccccc2N=C(C2C(=O)C=C(C)OC2=O)C1 (configuration not stated),T/C,"dose: 100.0 mg/kg/injection, schedule: Q01DX001 (ip), vehicle: saline",108 % of control
same,T/C,"dose: 200.0 mg/kg/injection, schedule: Q01DX001 (ip), vehicle: saline",104 % of control
same,T/C,"dose: 400.0 mg/kg/injection, schedule: Q01DX001 (ip), vehicle: saline",103 % of control
